Data: ChEMBL document CHEMBL5154803, “Spermine-Conjugated Short Proline-Rich Lipopeptides as Broad-Spectrum Intracellular Targeting Antibacterial Agents” (J Med Chem, 2022)
Converted amounts (≈) assume the structure as drawn. The source made the active and inactive calls. The rule behind the calls is not given here. Where a SMILES comes first, the peptide text is derived from it. The star is where a group is joined. Lauroyl = CCCCCCCCCCCC(=O)*; Decanoyl = CCCCCCCCCC(=O)*; Spermine = NCCCNCCCCNCCCN*

How the values were obtained:
Staphylococcus aureus [1] = experiment: Synergistic antibacterial activity against MDR-methicillin-resistant Staphylococcus aureus ATCC BAA-44 assessed as fractional inhibitory concentration index in presence of chloramphenicol by checkerboard assay; format: functional
Staphylococcus aureus [2] = experiment: Synergistic antibacterial activity against MDR-methicillin-resistant Staphylococcus aureus ATCC BAA-44 assessed as fold change in neomycin MIC by checkerboard assay; format: functional
[3] = molecular target: T1, Bacterial 70S ribosome (Bacteria) (UniProt P0A7V0+P60723+P0AG67+P0A7R5+P0A7R9+P0A7S3+P0A7S9+P0AG59+P0ADZ4+P0A7T3+P0AG63+P0A7T7+P0A7U3+P0A7U7+P68679+P0A7V3+P0A7V8+P0A7W1+P02358+P02359+P0A7W7+P0A7X3+P0A7J3+P0A7J7+P0AA10+P0ADY3+P02413+P0ADY7+P0AG44+P0C018+P0A7K6+P0A7L0+P0A7L3+P0AG48+P61175+P0ADZ0+P60624+P68919+P0A7L8+P0A7M2+P0A7M6+P60422+P0AG51+P0A7N1+P0A7M9+P0A7N4+P0A7N9+P0A7P5+P0A7Q1+Q2EEQ2+P0A7Q6+P60438+P62399+P0AG55+P0A7K2); experiment: Inhibition of 70S ribosome-mediated protein synthesis in Escherichia coli at 5XMIC incubated for 1 hr by renilla luciferase based luminescence assay; format: subcellular
Escherichia coli [4] = experiment: Antibacterial activity against Escherichia coli ATCC 25922 assessed as reduction in bacterial growth measured after 18 hrs in presence of 10% v/v human serum in MHB by broth microdilution method; format: functional; conditions: ATCC 25922, Serum
Cell membrane [5] = experiment: Disruption of bacterial cell membrane in Escherichia coli ATCC 25922 assessed as proportion of bacteria with intact cell membrane at 5X MIC incubated for 1 hr by PI staining based flow cytometric analysis (reference value: 99.3%); format: subcellular
Escherichia coli [6] = experiment: Antibacterial activity against Escherichia coli ATCC 25922 assessed as reduction in bacterial growth measured after 18 hrs by broth microdilution method; format: functional
Staphylococcus aureus [7] = experiment: Synergistic antibacterial activity against MDR-methicillin-resistant Staphylococcus aureus ATCC BAA-44 assessed as fold change in chloramphenicol MIC by checkerboard assay; format: functional
Acinetobacter baumannii = experiment: Antibacterial activity against Acinetobacter baumannii i ATCC 19606 assessed as reduction in bacterial growth measured after 18 hrs by broth microdilution method; format: functional
Staphylococcus aureus [8] = experiment: In vivo antibacterial activity against Staphylococcus aureus ATCC 25923 infected in BALB/c mouse model assessed as reduction of bacterial load in liver at 5 mg/kg, ip administered as single dose measured after 24 hrs by colony counting based analysis (reference value: 8.1X10^4 CFU); format: functional
Pseudomonas aeruginosa = experiment: Antibacterial activity against Pseudomonas aeruginosa ATCC BAA-427 assessed as reduction in bacterial growth measured after 18 hrs by broth microdilution method; format: functional
Staphylococcus aureus [9] = experiment: Synergistic antibacterial activity against MDR-methicillin-resistant Staphylococcus aureus ATCC BAA-44 assessed as neomycin MIC by checkerboard assay; format: functional
Staphylococcus aureus [10] = experiment: Additive antibacterial activity against MDR-methicillin-resistant Staphylococcus aureus ATCC BAA-44 assessed as rifampicin MIC by checkerboard assay; format: functional
Cell membrane [11] = experiment: Disruption of bacterial cell membrane in Escherichia coli ATCC 25922 assessed as proportion of bacteria with damaged cell membrane at 5X MIC incubated for 1 hr by PI staining based flow cytometric analysis (reference value: 0.7%); format: subcellular
Staphylococcus aureus [12] = experiment: In vivo antibacterial activity against Staphylococcus aureus ATCC 25923 infected in BALB/c mouse model assessed as reduction of bacterial load in kidney at 5 mg/kg, ip administered as single dose measured after 24 hrs by colony counting based analysis (reference value: 2X10^4 CFU); format: functional
[13] = system: Staphylococcus epidermidis; experiment: Antibacterial activity against Staphylococcus epidermidis ATCC 12228 assessed as reduction in bacterial growth measured after 18 hrs by broth microdilution method; format: functional
Escherichia coli [14] = experiment: Bacteriostatic activity against Escherichia coli ATCC 25922 at 1XMIC incubated for 4 hrs followed by plating on MHII agar pate for 24 hrs; format: functional, organism-based; conditions: time 28.0 hrs
Staphylococcus aureus [15] = experiment: In vivo antibacterial activity against Staphylococcus aureus ATCC 25923 infected in BALB/c mouse model assessed as reduction of bacterial load in spleen at 5 mg/kg, ip administered as single dose measured after 24 hrs by colony counting based analysis (reference value: 6X10^3 CFU); format: functional
Staphylococcus aureus [16] = experiment: Additive antibacterial activity against MDR-methicillin-resistant Staphylococcus aureus ATCC BAA-44 assessed as fold change in gentamicin MIC by checkerboard assay; format: functional
Staphylococcus aureus [17] = experiment: Additive antibacterial activity against MDR-methicillin-resistant Staphylococcus aureus ATCC BAA-44 assessed as gentamicin MIC by checkerboard assay; format: functional
Staphylococcus aureus [18] = experiment: Antibacterial activity against MDR-methicillin-resistant Staphylococcus aureus ATCC BAA-44 assessed as reduction in bacterial growth measured after 18 hrs by broth microdilution method; format: functional
Escherichia coli [19] = experiment: Bactericidal activity against Escherichia coli ATCC 25922 assessed as log reduction of bacterial growth at 5XMIC incubated for 2 hrs followed by plating on MHII agar pate for 24 hrs; format: functional; conditions: time 26 hrs
[20] = Cytotoxicity against human THP-1 cells assessed as cell viability at 50 uM by MTT assay; format: toxicity, cell-based; conditions: read-out: Activity
Staphylococcus aureus [21] = experiment: Additive antibacterial activity against MDR-methicillin-resistant Staphylococcus aureus ATCC BAA-44 assessed as fold change in tetracycline MIC by checkerboard assay; format: functional
Escherichia coli [22] = experiment: Antibacterial activity against Escherichia coli MRE600 assessed as reduction in bacterial growth measured after 18 hrs by broth microdilution method; format: functional
Staphylococcus aureus [23] = experiment: Additive antibacterial activity against MDR-methicillin-resistant Staphylococcus aureus ATCC BAA-44 assessed as tetracycline MIC by checkerboard assay; format: functional
trypsin = trypsin (Homo sapiens, UniProt P07477+P07478+P35030); experiment: Stability of compound assessed as trypsin (unknown origin)-mediated compound degradation by measuring parent compound remaining at 150 uM measured upto 4 hrs by RP-HPLC method; format: ADME, protein assay; conditions: read-out: Stability
Staphylococcus aureus [24] = experiment: Synergistic antibacterial activity against MDR-methicillin-resistant Staphylococcus aureus ATCC BAA-44 assessed as ampicillin MIC by checkerboard assay; format: functional
Staphylococcus aureus [25] = experiment: Synergistic antibacterial activity against MDR-methicillin-resistant Staphylococcus aureus ATCC BAA-44 assessed as fractional inhibitory concentration index in presence of ampicillin by checkerboard assay; format: functional
Cell membrane [26] = experiment: Disruption of bacterial cell membrane in Escherichia coli ATCC 25922 assessed as proportion of bacteria with damaged cell membrane at 1X MIC incubated for 1 hr by PI staining based flow cytometric analysis (Rvb =0.7%); format: subcellular
Staphylococcus aureus [27] = experiment: Synergistic antibacterial activity against MDR-methicillin-resistant Staphylococcus aureus ATCC BAA-44 assessed as fractional inhibitory concentration index in presence of neomycin by checkerboard assay; format: functional
[28] = molecular target: T1, Bacterial 70S ribosome (Bacteria); experiment: Inhibition of 70S ribosome-mediated protein synthesis in Escherichia coli at 1XMIC incubated for 1 hr by renilla luciferase based luminescence assay; format: subcellular
Staphylococcus aureus [29] = experiment: Antibacterial activity against methicillin-resistant Staphylococcus aureus ATCC 33591 assessed as reduction in bacterial growth measured after 18 hrs by broth microdilution method; format: functional

SMILES	fractional inhibitory concentration index (FICI) (Staphylococcus aureus [1])	fold change (FC) (Staphylococcus aureus [2])	inhibition [3]	MIC (Escherichia coli [4]) [µM]	Activity (Cell membrane [5]) [%]	MIC (Escherichia coli [6]) [µM]	fold change (FC) (Staphylococcus aureus [7])	MIC (Acinetobacter baumannii) [µM]	Activity (Staphylococcus aureus [8])	MIC (Pseudomonas aeruginosa) [µM]	MIC (Staphylococcus aureus [9]) [µg/mL]	MIC (Staphylococcus aureus [10]) [µg/mL]	Activity (Cell membrane [11]) [%]	Activity (Staphylococcus aureus [12])	MIC [13] [µM]	Activity (Escherichia coli [14])	Activity (Staphylococcus aureus [15])	fold change (FC) (Staphylococcus aureus [16])	MIC (Staphylococcus aureus [17]) [µg/mL]	MIC (Staphylococcus aureus [18]) [µM]	also measured
CCCCCCCCCC(=O)N1CCC[C@H]1C(=O)N[C@@H](CCCNC(=N)N)C(=O)N1CCC[C@H]1C(=O)N[C@@H](CCCNC(=N)N)C(=O)N1CCC[C@H]1C(=O)N1CCC[C@H]1C(=O)N[C@@H](CCCNC(=N)N)C(=O)NCCCNCCCCNCCCN (Decanoyl-PRPRPPR-Spermine)	2	1.6	Active	6.2	90.4	3.1 (≈ 3.76 µg/mL)	1	6.2 (≈ 7.52 µg/mL)	<4 10^2CFU	6.2 (≈ 7.52 µg/mL)	7.81	0.625	9.56	<4 10^2CFU	1.5 (≈ 1.82 µg/mL)	Active	<4 10^2CFU	2	1.25	3.1 (≈ 3.76 µg/mL)	Activity (Escherichia coli [19]): >3 log10CFU/ml; viability at 50 µM [20]: 94%; fold change (FC) (Staphylococcus aureus [21]): 2; MIC (Escherichia coli [22]): 3.1 µM (≈ 3.76 µg/mL); MIC (Staphylococcus aureus [23]): 31.2 µg/mL; remaining at 4 h, 150 µM (trypsin): > 80%; MIC (Staphylococcus aureus [24]): 7.81 µg/mL; fractional inhibitory concentration index (FICI) (Staphylococcus aureus [25]): 0.313; Activity (Cell membrane [26]): 6.11%; fractional inhibitory concentration index (FICI) (Staphylococcus aureus [27]): 0.312; inhibition [28]: Active; MIC (Staphylococcus aureus [29]): 3.1 µM (≈ 3.76 µg/mL)
CCCCCCCCCCCC(=O)N1CCC[C@H]1C(=O)N[C@@H](CCCNC(=N)N)C(=O)N1CCC[C@H]1C(=O)N[C@@H](CCCNC(=N)N)C(=O)N1CCC[C@H]1C(=O)N1CCC[C@H]1C(=O)N[C@@H](CCCNC(=N)N)C(=O)NCCCNCCCCNCCCN (Lauroyl-PRPRPPR-Spermine)	0.5	1.6	Active	3.1	72.7	3.1 (≈ 3.85 µg/mL)	4	6.2 (≈ 7.7 µg/mL)	<4 10^2CFU	6.2 (≈ 7.7 µg/mL)	7.81	0.625	27.3	<4 10^2CFU	1.5 (≈ 1.86 µg/mL)	Active	<4 10^2CFU	1	1.25	1.5 (≈ 1.86 µg/mL)	Activity (Escherichia coli [19]): >3 log10CFU/ml; viability at 50 µM [20]: 79%; fold change (FC) (Staphylococcus aureus [21]): 2; MIC (Escherichia coli [22]): 3.1 µM (≈ 3.85 µg/mL); MIC (Staphylococcus aureus [23]): 31.2 µg/mL; remaining at 4 h, 150 µM (trypsin): > 80%; MIC (Staphylococcus aureus [24]): 3.9 µg/mL; fractional inhibitory concentration index (FICI) (Staphylococcus aureus [25]): 0.28; Activity (Cell membrane [26]): 7.09%; fractional inhibitory concentration index (FICI) (Staphylococcus aureus [27]): 0.312; inhibition [28]: Active; MIC (Staphylococcus aureus [29]): 1.5 µM (≈ 1.86 µg/mL)
